Test results published in patent US20240368169A1 (priority 2021, published 2024).

Experiments:
[1] = biological target: recombinant poly(ADP-ribose) polymerase 2 (PARP2) (Homo sapiens, UniProt Q9UGN5); experiment: biochemical; conditions: inhibition of PARP2 enzyme activity, chemiluminescence
[2] = biological target: recombinant poly(ADP-ribose) polymerase 1 (PARP1) (Homo sapiens, UniProt P09874); experiment: biochemical; conditions: inhibition of PARP1 enzyme activity, chemiluminescence
MDA-MB-436 cells = experiment: Growth inhibition assay against BRCA mutant human breast cancer MDA-MB-436 cell line (CCK-8, 7 days); format: cell-based

Sequence of recombinant poly(ADP-ribose) polymerase 2 (PARP2) (Q9UGN5 whole entry): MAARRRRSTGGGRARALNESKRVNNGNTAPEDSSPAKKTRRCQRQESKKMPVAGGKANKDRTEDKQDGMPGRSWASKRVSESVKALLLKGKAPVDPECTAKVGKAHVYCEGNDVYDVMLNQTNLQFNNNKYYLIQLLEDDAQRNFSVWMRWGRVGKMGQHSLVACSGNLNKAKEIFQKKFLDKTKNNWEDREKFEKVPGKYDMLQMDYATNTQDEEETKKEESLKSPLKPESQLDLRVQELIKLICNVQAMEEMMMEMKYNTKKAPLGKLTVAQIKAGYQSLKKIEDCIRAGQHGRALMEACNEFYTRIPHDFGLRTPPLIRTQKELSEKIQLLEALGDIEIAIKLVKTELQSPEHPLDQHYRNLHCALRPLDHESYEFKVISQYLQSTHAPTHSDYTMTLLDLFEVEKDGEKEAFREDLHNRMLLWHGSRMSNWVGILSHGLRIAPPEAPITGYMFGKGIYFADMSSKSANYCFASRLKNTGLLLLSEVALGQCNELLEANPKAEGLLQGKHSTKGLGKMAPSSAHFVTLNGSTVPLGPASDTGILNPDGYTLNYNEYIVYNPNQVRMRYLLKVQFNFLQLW
Sequence of recombinant poly(ADP-ribose) polymerase 1 (PARP1) (P09874 whole entry): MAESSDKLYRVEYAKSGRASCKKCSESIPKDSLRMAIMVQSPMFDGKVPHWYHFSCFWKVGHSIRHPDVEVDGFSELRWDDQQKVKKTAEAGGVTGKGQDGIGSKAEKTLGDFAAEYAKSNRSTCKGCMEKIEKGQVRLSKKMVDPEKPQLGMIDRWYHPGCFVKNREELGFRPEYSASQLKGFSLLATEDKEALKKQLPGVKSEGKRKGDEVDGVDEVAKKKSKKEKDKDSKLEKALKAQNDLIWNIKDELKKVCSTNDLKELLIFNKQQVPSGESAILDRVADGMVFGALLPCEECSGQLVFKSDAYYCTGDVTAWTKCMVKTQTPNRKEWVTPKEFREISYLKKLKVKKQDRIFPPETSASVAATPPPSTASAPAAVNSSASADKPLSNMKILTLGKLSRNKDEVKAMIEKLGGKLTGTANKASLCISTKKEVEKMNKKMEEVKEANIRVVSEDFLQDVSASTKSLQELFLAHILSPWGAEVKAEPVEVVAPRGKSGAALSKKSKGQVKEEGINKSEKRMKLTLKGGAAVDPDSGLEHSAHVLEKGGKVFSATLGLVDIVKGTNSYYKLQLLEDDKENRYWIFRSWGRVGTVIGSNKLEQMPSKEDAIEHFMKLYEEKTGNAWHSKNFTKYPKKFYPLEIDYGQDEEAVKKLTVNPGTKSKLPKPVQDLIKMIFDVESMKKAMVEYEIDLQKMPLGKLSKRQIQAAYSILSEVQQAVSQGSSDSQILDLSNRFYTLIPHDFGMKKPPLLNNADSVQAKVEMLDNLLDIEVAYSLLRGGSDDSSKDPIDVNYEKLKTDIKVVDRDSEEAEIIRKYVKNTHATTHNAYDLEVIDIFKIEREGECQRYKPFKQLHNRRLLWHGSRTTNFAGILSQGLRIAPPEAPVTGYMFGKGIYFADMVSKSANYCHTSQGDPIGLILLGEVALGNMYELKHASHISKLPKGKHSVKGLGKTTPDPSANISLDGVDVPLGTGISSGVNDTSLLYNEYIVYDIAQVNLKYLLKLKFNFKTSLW

Structure (SMILES)	IC50 [1] [nM]	IC50 [2] [nM]	IC50 (MDA-MB-436 cells) [nM]
CNC(=O)c1ccc(N2CCN(Cc3cc(F)c4c(c3)[nH]c(=O)c3occc34)CC2)c(F)n1 [Example 108, 7-((4-(2-fluoro-6-(methylcarbamoyl)pyridin-3-yl)piperazin-1-yl)methyl)-9-fluoro-furo[2,3-c]quinolin-4(5H)-one]	353	0.66	
CNC(=O)c1ccc(N2CCN(Cc3cc(F)c4c(c3)[nH]c(=O)c3c(Cl)cnn34)CC2)c(C)n1 [Example 127, 7-((4-(2-methyl-6-(methylcarbamoyl)pyridin-3-yl)piperazin-1-yl)methyl)-3-chloro-9-fluoropyrazolo[1,5-a]quinoxalin-4(5H)-one]	83	0.85	
CNC(=O)c1ccc(N2CCN(Cc3ccc4c(c3)[nH]c(=O)c3sccc34)CC2)c(C)n1 [Example 84, 7-((4-(2-methyl-6-(methylcarbamoyl)pyridin-3-yl)piperazin-1-yl)methyl)thieno[2,3-c]quinolin-4(5H)-one]	10.1	0.77	
CNC(=O)c1ccc(N2CCN(Cc3ccc4c(c3)[nH]c(=O)c3ccsc34)CC2)c(C)n1 [Example 85, 7-((4-(2-methyl-6-(methylcarbamoyl)pyridin-3-yl)piperazin-1-yl)methyl)thieno[3,2-c]quinolin-4(5H)-one]	78	1.52	
CCNC(=O)c1ccc(N2CCN(Cc3ccc4c5c(c(=O)[nH]c4c3)COC5)CC2)c(C)n1 [Example 7, 7-((4-(2-methyl-6-(ethylcarbamoyl)pyridin-3-yl)piperazin-1-yl)methyl)-3,5-dihydrofuro[3,4-c]quinolin-4(1H)-one]		1.9	4.36
CNC(=O)c1ccc(N2CCN(Cc3ccc4c(c3)[nH]c(=O)n3cncc43)CC2)c(C)n1 [Example 30, 8-((4-(2-methyl-6-(methylcarbamoyl)pyridin-3-yl)piperazin-1-yl)methyl)imidazo[1,5-c]quinazolin-5(6H)-one]	2590	1.54	
CCNC(=O)c1ccc(N2CCN(Cc3ccc4c([nH]c(=O)c5ccnn54)c3F)CC2)c(F)n1 [Example 110, 7-((4-(2-fluoro-6-(ethylcarbamoyl)pyridin-3-yl)piperazin-1-yl)methyl)-6-fluoropyrazolo[1,5-a]quinoxalin-4(5H)-one]	965	1.95	
CNC(=O)c1ccc(N2CCN(Cc3cc(F)c4c(c3)[nH]c(=O)n3cccc43)CC2)c(C)n1 [Example 131, 8-((4-(2-methyl-6-(methylcarbamoyl)pyridin-3-yl)piperazin-1-yl)methyl)-10-fluoropyrrolo[1,2-c]quinazolin-5(6H)-one]	111	0.78	
CCNC(=O)c1ccc(N2CCN(Cc3ccc4c5c(c(=O)[nH]c4c3)COC5)CC2)c(Cl)n1 [Example 6, 7-((4-(2-chloro-6-(ethylcarbamoyl)pyridin-3-yl)piperazin-1-yl)methyl)-3,5-dihydrofuro[3,4-c]quinolin-4(1H)-one]		1.86	17.7
CNC(=O)c1ccc(N2CCN(Cc3ccc4c5c(c(=O)[nH]c4c3)CCC5)CC2)c(Cl)n1 [Example 16, 7-((4-(2-chloro-6-(methylcarbamoyl)pyridin-3-yl)piperazin-1-yl)methyl)-1,2,3,5-tetrahydro-4H-cyclopenta[c]quinolin-4-one]		1.99	1.71
CNC(=O)c1ccc(N2CCN(Cc3ccc4c(c3)[nH]c(=O)c3nccn34)CC2)c(C)n1 [Example 25, 7-((4-(2-methyl-6-(methylcarbamoyl)pyridin-3-yl)piperazin-1-yl)methyl)imidazo[1,2-a]quinoxalin-4(5H)-one]		1.93	44.9
CNC(=O)c1ccc(N2CCN(Cc3ccc4c(c3)[nH]c(=O)c3occc34)CC2)c(C)n1 [Example 104, 7-((4-(2-methyl-6-(methylcarbamoyl)pyridin-3-yl)piperazin-1-yl)methyl)furo[2,3-c]quinolin-4(5H)-one]		1.42	
[2H]C([2H])([2H])NC(=O)c1ccc(N2CCN(Cc3cc(F)c4c(c3)[nH]c(=O)c3ccnn34)CC2)c(C)n1 [Example 90, 7-((4-(2-methyl-6-((methyl-d3)-carbamoyl)pyridin-3-yl)piperazin-1-yl)methyl)-9-fluoropyrazolo[1,5-a]quinoxalin-4(5H)-one]			2.44
CNC(=O)c1ccc(N2CCN(Cc3cc(F)c4c(c3)[nH]c(=O)n3ccnc43)CC2)c(F)n1 [Example 120]	1950		
CCNC(=O)c1ccc(N2CCN(Cc3ccc4c5c(c(=O)[nH]c4c3)CCC5)CC2)c(C)n1 [Example 49, 7-((4-(2-methyl-6-(ethylcarbamoyl)pyridin-3-yl)piperazin-1-yl)methyl)-1,2,3,5-tetrahydro-4H-cyclopenta[c]quinolin-4-one]			2.18
CNC(=O)c1ccc(N2CCN(Cc3ccc4c(c3)[nH]c(=O)c3cnn(C)c34)CC2)c(C)n1 [Example 105, 7-((4-(2-methyl-6-(methylcarbamoyl)pyridin-3-yl)piperazin-1-yl)methyl)-1-methyl-1,5-dihydro-4H-pyrazolo[4,3-c]quinolin-4-one]	910		
CNC(=O)c1ccc(N2CCN(Cc3ccc4c(c3)[nH]c(=O)c3cncn34)CC2)c(C)n1 [Example 26, 7-((4-(2-methyl-6-(methylcarbamoyl)pyridin-3-yl)piperazin-1-yl)methyl)imidazo[1,5-a]quinoxalin-4(5H)-one]			23.9
CNC(=O)c1ccc(N2CCN(Cc3ccc4c(c3)[nH]c(=O)c3c(C)cnn34)CC2)c(C)n1 [Example 58, 7-((4-(2-methyl-6-(methylcarbamoyl)pyridin-3-yl)piperazin-1-yl)methyl)-3-methylpyrazolo[1,5-a]quinoxalin-4(5H)-one]			1.87
CNC(=O)c1ccc(N2CCN(Cc3cc(Cl)c4c(c3)[nH]c(=O)c3ccnn34)CC2)c(F)n1 [Example 47, 7-((4-(2-fluoro-6-(methylcarbamoyl)pyridin-3-yl)piperazin-1-yl)methyl)-9-chloropyrazolo[1,5-a]quinoxalin-4(5H)-one]			2.6
CNC(=O)c1ccc(N2CCN(Cc3cc(F)c4c(c3)[nH]c(=O)c3cccn34)CC2)c(F)n1 [Example 41, 7-((4-(2-fluoro-6-(methylcarbamoyl)pyridin-3-yl)piperazin-1-yl)methyl)-9-fluoropyrrolo[1,2-a]quinoxalin-4(5H)-one]			1.41
CNC(=O)c1ccc(N2CCN(Cc3ccc4c(c3)[nH]c(=O)c3ncnn34)CC2)c(C)n1 [Example 29, 7-((4-(2-methyl-6-(methylcarbamoyl)pyridin-3-yl)piperazin-1-yl)methyl)-[1,2,4]triazolo[1,5-a]quinoxalin-4(5H)-one]			28.2
CNC(=O)c1ccc(N2CCN(Cc3cc(F)c4c(c3)[nH]c(=O)c3ccnn34)CC2)c(C)n1 [Example 43, 7-((4-(2-methyl-6-(methylcarbamoyl)pyridin-3-yl)piperazin-1-yl)methyl)-9-fluoropyrazolo[1,5-a]quinoxalin-4(5H)-one]			1.2
CNC(=O)c1ccc(N2CCN(Cc3ccc4c(c3)[nH]c(=O)c3cc(C)cn34)CC2)c(C)n1 [Example 55, 7-((4-(2-methyl-6-(methylcarbamoyl)pyridin-3-yl)piperazin-1-yl)methyl)-2-methylpyrrolo[1,2-a]quinoxalin-4(5H)-one]			1.44
